Results taken from ChEMBL document CHEMBL1201862, “PubChem BioAssay data set” (2004).
Activity calls are given as the source filed them.

Columns and labels:
[1] = T. cruzi growth inhibition in host cells, dose response, cell-based, plate reader, dry powder, set 2 (AID 652275); format: functional
[2] = cells; format: functional, cell-based
[3] = system: HEK293; assay: inhibitors of LMP1-driven NF-kB reporter, dose response, cell-based, HEK293, luciferase, cherry-pick (AID 588343); format: functional; conditions: Homo sapiens
[4] = molecular target: T1, Nuclear receptor subfamily 0 group B member 1 (Homo sapiens, UniProt P51843); format: functional, cell-based;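 further: HEK293T cells transfected with SF-1 and DAX-1 plus StAR promoter luciferase reporter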
T1 sequence (P51843 whole entry): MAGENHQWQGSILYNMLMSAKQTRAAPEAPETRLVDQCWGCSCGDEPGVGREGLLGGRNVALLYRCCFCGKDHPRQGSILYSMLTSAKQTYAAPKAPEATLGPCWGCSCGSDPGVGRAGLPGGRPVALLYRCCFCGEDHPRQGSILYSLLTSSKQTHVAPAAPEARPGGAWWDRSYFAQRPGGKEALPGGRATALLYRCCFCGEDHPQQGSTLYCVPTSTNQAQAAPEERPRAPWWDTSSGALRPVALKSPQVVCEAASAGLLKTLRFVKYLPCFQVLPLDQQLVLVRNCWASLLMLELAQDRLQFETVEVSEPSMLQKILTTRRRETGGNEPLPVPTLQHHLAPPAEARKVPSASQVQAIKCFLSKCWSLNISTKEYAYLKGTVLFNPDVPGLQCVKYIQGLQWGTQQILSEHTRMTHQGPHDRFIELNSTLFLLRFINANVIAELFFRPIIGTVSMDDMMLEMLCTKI

[5] = HepG2 cell cytotoxicity, dose response, cytotoxicity control, dry powder samples (AID 720568); format: functional, cell-based
[6] = inhibitors of SNCA 5'UTR-driven reporter translation, confirmation, H4 neuroglioma cells, luminescence (AID 1988); format: functional, cell-based
[7] = Luminescence Cell-Based Dose Response HTS to Identify Inhibitors of 5'UTR Stem-Loop Driven Prion Protein mRNA Translation in H4 Neuroglioblastoma Cells. [Related pubchem assays: 1827 (Project Summary), 1813 (Primary HTS)]; format: functional
[8] = molecular target: Genome polyprotein (dengue virus type 2, UniProt P29990); assay: Dengue-2 NS5 methyltransferase inhibitors, primary screen, biochemical, confirmation dose response (AID 588689); format: functional
Chain of Genome polyprotein (P29990 2492-3391 limits assumed): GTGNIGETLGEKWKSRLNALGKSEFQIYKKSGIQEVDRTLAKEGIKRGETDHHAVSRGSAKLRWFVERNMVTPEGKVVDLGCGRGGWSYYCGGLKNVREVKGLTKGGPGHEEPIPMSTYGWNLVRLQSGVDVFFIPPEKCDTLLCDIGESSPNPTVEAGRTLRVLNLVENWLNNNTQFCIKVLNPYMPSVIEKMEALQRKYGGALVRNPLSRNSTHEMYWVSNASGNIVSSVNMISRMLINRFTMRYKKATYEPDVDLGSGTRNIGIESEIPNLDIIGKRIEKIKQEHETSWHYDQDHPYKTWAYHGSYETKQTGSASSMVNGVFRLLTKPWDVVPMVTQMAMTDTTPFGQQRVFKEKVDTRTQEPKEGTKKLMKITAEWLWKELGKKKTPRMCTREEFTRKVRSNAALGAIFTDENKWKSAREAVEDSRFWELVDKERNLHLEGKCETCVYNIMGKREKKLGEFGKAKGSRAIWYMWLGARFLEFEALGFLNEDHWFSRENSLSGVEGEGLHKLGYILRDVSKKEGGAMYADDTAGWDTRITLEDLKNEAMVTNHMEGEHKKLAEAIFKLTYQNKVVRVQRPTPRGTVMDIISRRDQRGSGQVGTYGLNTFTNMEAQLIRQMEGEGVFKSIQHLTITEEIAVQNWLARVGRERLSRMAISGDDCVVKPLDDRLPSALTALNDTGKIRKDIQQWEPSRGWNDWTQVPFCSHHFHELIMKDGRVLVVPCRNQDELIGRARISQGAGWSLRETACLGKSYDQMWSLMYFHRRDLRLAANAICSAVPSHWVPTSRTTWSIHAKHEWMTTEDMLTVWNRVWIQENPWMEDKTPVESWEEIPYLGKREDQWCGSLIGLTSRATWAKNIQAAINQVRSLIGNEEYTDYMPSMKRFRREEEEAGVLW

[9] = inhibitors of firefly luciferase expression or activity, dose response, H4 neuroglioma cells, luminescence (AID 1990); format: functional, cell-based
[10] = molecular target: T2, Mannose-6-phosphate isomerase (Homo sapiens, UniProt P34949); assay: inhibitors of human PMI, primary screen, biochemical, fluorescence intensity, coupled assay (AID 1209)
T2 sequence (P34949 whole entry): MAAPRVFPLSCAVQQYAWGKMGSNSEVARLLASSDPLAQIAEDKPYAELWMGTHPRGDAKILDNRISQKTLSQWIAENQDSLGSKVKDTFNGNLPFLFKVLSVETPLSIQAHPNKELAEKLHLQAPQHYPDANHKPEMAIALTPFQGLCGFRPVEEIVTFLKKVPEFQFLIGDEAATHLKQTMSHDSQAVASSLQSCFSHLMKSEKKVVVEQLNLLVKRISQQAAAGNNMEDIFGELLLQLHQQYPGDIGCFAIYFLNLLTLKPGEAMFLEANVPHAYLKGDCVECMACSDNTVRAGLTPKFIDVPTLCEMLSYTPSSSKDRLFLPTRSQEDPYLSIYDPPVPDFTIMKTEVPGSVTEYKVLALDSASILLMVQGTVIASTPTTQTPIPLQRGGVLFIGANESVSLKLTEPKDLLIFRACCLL

[11] = molecular target: Endoplasmic reticulum aminopeptidase 1 (Homo sapiens, UniProt Q9NZ08); assay: ERAP1 aminopeptidase inhibitors, dose response, biochemical, cherry-pick, set 2, plate reader (AID 743314)
Chain of Endoplasmic reticulum aminopeptidase 1 (Q9NZ08 whole entry): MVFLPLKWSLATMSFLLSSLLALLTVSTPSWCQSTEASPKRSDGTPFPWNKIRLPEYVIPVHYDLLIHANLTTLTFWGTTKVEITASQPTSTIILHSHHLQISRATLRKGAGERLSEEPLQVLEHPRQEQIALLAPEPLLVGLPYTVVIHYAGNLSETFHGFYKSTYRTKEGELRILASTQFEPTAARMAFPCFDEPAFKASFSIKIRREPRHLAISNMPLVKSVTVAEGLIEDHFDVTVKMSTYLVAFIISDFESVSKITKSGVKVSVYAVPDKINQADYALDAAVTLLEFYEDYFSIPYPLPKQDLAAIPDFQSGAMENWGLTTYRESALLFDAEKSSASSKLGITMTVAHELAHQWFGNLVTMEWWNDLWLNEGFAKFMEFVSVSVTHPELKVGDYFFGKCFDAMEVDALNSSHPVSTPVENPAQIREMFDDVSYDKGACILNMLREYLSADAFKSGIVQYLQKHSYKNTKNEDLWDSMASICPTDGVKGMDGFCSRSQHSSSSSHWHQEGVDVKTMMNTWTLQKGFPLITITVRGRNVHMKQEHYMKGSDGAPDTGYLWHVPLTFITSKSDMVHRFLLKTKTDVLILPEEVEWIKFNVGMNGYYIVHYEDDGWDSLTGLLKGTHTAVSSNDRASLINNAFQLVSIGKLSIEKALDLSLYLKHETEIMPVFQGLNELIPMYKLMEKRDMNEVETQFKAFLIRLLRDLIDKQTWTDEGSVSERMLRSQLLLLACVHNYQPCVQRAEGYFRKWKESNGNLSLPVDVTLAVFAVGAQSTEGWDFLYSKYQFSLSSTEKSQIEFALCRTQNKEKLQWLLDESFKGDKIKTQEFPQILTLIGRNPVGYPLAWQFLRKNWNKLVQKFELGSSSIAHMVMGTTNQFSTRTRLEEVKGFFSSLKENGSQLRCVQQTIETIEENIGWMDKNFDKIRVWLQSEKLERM

[12] = A Cell-Based Confirmatory Screen for Compounds that Inhibit VEEV, TC-83 (8).; format: functional
[13] = A Cell-Based Confirmatory Screen for Compounds that Inhibit VEEV, TC-83 (7).; format: functional
[14] = cytotoxicity in HeLa cells, dose response, cytotoxicity control, cell-based, plate reader, dry powder (AID 651946); format: functional

COc1ccc(C#Cc2cccc(-c3nc(C(=O)NCc4ccc5c(c4)OCO5)cc4c3[C@H](CCO)N([S+]([O-])C(C)(C)C)C4)c2)cc1OC (some centres undefined)
AC50 [1]: 0.844 µM (active)

C(=Cc1nc2ccccc2o1)c1ccc2c(c1)OCO2
IC50 [2]: > 67.6 µM (inactive)
AC50 [3]: 2.91 µM (active)
IC50 [4]: > 0.0927 µM (active)

O=C1CCNc2cc3ccccc3cc21
AC50 [5]: 5.57 µM (active)
EC50 [6]: 5.91 µM (active)
EC50 [7]: > 120 µM (not active)
IC50 [8]: > 100 µM (active)
EC50 [9]: > 60 µM (not active)
IC50 [10]: 23.2 µM (active)

CCCN1[C@@H]2Cn3c(ccc(/C=C/c4ccccc4)c3=O)[C@H]1[C@@H](C(=O)NCc1ccccn1)[C@@H]2CO
AC50 [11]: 8.95 µM (active)

COc1ccc(NC(=O)c2cc([N+](=O)[O-])ccc2/N=C2\CN(C)CCN2C)cc1
IC50 [12]: 0.037 µM (active)
IC50 [13]: 0.04 µM (active)

COCCOCCSc1nnc(-c2ccccc2)o1
AC50 [14]: > 52 µM (inactive)
